# Test results: patent US8969288B2 (Indiana University Research and Technology Corporation, priority 2008, dated 2015)
# Read-outs that look alike come from different tables or passages of the source. Square brackets hold non-standard residues; d marks the D form. Side chains are listed from the residue outwards. Ends that are not written are not given here. Peptide text beside a SMILES is read from it. maleimide = maleimide activating group on PEG that reacts with a thiol-containing amino acid by Michael addition to form a thioether linkage (PEGylation); Aib = CC(C)(N)C(=O)O; Sar = CNCC(=O)O
# What was measured:
# [1] = Dipeptide cleavage half time in PBS on model hexapeptide (HPLC, LC-MS); format: physicochemical; conditions: for Relative peak area(%), HPLC peak a: molecular weight 702; for Relative peak area(%), HPLC peak b: molecular weight 902
# Procedure: The hexapeptide was assembled on a peptide synthesizer.
# Then it was incubated at 37° C. in a water bath. […] HPLC was used to monitor the cleavage reaction.
# The flow rate was 1 mL/min.
# The slope of this plot gives the rate constant I′.
# GLP-1 receptor = GLP-1 receptor (Homo sapiens, UniProt P43220); experiment: GLP-receptor Luciferase assay of prodrug samples incubated in PBS; format: cell-based; conditions: Table 5
# glucagon receptor = glucagon receptor (Homo sapiens, UniProt P47871); experiment: glucagon antagonism of Class 4 peptides, cAMP production in vitro; format: cell-based; conditions: PLA at position 6 versus positions 4 and 5
# glucagon receptor, sequence (P47871 26-477): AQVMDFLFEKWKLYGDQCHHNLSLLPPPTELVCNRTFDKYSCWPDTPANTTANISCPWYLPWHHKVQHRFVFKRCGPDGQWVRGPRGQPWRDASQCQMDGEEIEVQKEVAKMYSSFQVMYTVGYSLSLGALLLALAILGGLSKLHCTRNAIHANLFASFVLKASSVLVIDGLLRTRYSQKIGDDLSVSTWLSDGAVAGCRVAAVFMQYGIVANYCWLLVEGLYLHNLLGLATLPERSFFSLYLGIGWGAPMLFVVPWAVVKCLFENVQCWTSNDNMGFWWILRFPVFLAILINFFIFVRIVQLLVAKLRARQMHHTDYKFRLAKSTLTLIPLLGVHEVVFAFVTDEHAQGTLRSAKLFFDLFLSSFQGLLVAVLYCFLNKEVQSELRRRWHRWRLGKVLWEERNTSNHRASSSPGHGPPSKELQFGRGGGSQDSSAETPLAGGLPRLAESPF
# GLP-1 receptor, sequence (P43220 24-463, species assumed): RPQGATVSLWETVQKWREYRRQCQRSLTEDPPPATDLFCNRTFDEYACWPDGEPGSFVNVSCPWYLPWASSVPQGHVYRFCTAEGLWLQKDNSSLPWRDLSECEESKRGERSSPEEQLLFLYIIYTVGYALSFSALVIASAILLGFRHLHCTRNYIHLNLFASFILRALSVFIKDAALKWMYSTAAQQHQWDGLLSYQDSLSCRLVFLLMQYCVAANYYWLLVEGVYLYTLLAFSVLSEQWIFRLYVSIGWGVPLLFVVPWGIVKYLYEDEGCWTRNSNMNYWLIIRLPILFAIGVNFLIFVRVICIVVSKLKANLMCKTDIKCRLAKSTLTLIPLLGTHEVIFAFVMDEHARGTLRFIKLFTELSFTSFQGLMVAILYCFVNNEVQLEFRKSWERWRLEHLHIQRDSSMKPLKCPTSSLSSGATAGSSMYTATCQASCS
molecule,measurement,setting,value
C[C@@H](O)[C@H](NC(=O)CNC(=O)[C@H](CCCNC(=N)N)NC(=O)[C@H](CO)NC(=O)[C@H](Cc1c[nH]cn1)NC(=O)CN(C)C(=O)[C@@H](N)CCCCN)C(=O)N[C@@H](Cc1ccccc1)C(N)=O [lys-sar-HSRGTF-NH2] (H-K[Sar]HSRGTF-NH2; N-terminus assumed),"Relative peak area(%), HPLC peak a","[1]; 5 h in PBS pH 7.4, 37° C.",26.5%
same,"Relative peak area(%), HPLC peak b","[1]; 5 h in PBS pH 7.4, 37° C.",73.5%
same,"Relative peak area(%), HPLC peak a",[1]; 8 h in PBS,28.9%
same,"Relative peak area(%), HPLC peak b",[1]; 8 h in PBS,71.1%
same,"Relative peak area(%), HPLC peak a",[1]; 24 h in PBS,28.8%
same,"Relative peak area(%), HPLC peak b",[1]; 24 h in PBS,71.2%
same,"Relative peak area(%), HPLC peak a",[1]; 31 h in PBS,77.7%
same,"Relative peak area(%), HPLC peak b",[1]; 31 h in PBS,22.3%
same,"Relative peak area(%), HPLC peak a",[1]; 47 h in PBS,90.0%
same,"Relative peak area(%), HPLC peak b",[1]; 47 h in PBS,10.0%
same,half-life,"[1]; phosphate buffered saline (PBS) buffer, pH 7.4",14 h
C[C@H](O)[C@@H](NC(=O)CNC(=O)[C@@H](CCCNC(=N)N)NC(=O)[C@H](NC(=O)[C@@H](Cc1c[nH]cn1)NC(=O)CN(C)C(=O)[C@@H](N)CCCCN)[C@H](C)O)C(=O)N[C@H](Cc1ccccc1)C(N)=O [lys-sar-dHdTdRGdTdF-NH2] (H-K[Sar][dH][dT][dR]G[dT][dF]-NH2),"Relative peak area(%), HPLC peak a","5 h in plasma pH 7.4, 37° C., molecular weight 702",17.0%
same,"Relative peak area(%), HPLC peak b","5 h in plasma, molecular weight 902",83.0%
same,"Relative peak area(%), HPLC peak a",11 h in plasma,29.2%
same,"Relative peak area(%), HPLC peak b",11 h in plasma,70.8%
same,"Relative peak area(%), HPLC peak a",24 h in plasma,60.2%
same,"Relative peak area(%), HPLC peak b",24 h in plasma,39.8%
same,"Relative peak area(%), HPLC peak a",32 h in plasma,54.0%
same,"Relative peak area(%), HPLC peak b",32 h in plasma,46.0%
same,"Relative peak area(%), HPLC peak a",48 h in plasma,27.6%
same,"Relative peak area(%), HPLC peak b",48 h in plasma,72.4%
"40 k PEG-Aib^−1-P^0,C^24GLP(7-36): Aib^−1-P^0,C^24GLP(7-36) pegylated by maleimido-functioned 40 k Da PEG on the SH group of 24-Cys ([Aib]PHAEGTFTSDVSSYLEGQAAKEFIC([maleimide-PEG 40 kDa])WLVKGR; ends and bridges not checked)",EC50%/STD ratio,GLP-1 receptor; 30 h in PBS,17.31%
same,EC50%/STD ratio,GLP-1 receptor; 54 h in PBS,27.74%
same,EC50%/STD ratio,GLP-1 receptor; 240 h in PBS,66.49%
same,EC50%/STD ratio,GLP-1 receptor; […] in PBS,55.90%
PLA6 analog: glucagon peptide with first 5 amino acids removed and remaining N-terminal amino group replaced with a hydroxyl group (phenyl-lactic acid),glucagon antagonist potency compared with analogs having a slightly extended N-terminus,glucagon receptor,appreciably more potent antagonist
